Data on 8 compounds can be found in patent US5021569A, “4-azatricyclo[4.3.1.1(3,8)]undecylarylpiperazines with anxiolytic activity” (priority 1990, dated 1991).

One test has as its system 5-HT1A receptor. Conditions: background literature; cited from earlier work.
Test [1] deals with T1, 5-HT1A serotonin receptor subtype (Rattus norvegicus, UniProt P19327).
T1 construct: from tissue
T1 sequence (P19327 1-422): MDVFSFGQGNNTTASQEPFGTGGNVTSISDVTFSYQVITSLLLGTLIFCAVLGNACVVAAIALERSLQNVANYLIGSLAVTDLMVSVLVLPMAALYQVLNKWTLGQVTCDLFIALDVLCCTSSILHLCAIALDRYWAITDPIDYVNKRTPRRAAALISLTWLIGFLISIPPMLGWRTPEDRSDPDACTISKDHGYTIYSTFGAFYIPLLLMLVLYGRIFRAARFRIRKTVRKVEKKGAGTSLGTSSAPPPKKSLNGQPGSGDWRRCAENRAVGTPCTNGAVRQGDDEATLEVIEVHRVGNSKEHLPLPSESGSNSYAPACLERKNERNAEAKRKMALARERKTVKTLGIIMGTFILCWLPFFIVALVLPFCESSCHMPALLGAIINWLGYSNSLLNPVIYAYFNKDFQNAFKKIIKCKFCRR
As to the kind of experiment: 5-HT1A receptor binding, displacement of 3H-8-OH DPAT (procedure of Hall et al.). The settings on record: for inhibition at 0.1 µM: read-out: Affinity for 5-HT1A Receptor Sites, % Inhibition at 100 nM; for Ki: Ki calculated from IC50 values, read-out: Affinity for 5-HT1A Receptor Sites, Ki.
From the text: The serotoninergic properties of the compounds of this invention were established by the procedure of Hall et al., J. Neurochem.

The target of the next test is T2, D2 receptor (Rattus norvegicus, UniProt P61169).
T2 construct: from tissue
T2 sequence (P61169 whole entry): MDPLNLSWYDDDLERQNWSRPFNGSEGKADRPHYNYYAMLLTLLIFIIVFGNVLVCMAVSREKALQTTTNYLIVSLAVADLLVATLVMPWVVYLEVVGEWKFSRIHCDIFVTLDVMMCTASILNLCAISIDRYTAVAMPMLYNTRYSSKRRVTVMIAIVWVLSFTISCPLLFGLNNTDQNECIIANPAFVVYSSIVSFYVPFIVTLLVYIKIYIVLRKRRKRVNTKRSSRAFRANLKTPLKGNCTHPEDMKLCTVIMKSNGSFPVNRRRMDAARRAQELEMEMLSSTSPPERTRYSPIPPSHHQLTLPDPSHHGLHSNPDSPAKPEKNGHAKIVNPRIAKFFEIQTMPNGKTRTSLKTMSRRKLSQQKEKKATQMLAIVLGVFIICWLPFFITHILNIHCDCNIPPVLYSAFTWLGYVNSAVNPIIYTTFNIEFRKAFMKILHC
Nature of the test: D2 receptor affinity, reduction of 3H-spiroperidol binding. Conditions: read-out: Affinity for D2 Receptor Sites, % Inhibition at 1 μM. The protocol: The percentage reduction of ^3 H-spiroperidol binding at 1 μM concentration of test compound is reported, infra.

For test [2] the following is noted: background, U.S. Pat. No. 4,818,756; cited from earlier work.
The mark [3] stands for this setting: 100 nM test compound, 3H-8-OH DPAT.
The mark [4] stands for this setting: 1 μM test compound, 3H-spiroperidol.

The structures appear in SMILES notation. Counter-ions that a name gives are not always drawn. Like-named read-outs stand apart in the source and are kept apart here.

As for `O=C1CC2(CCCC2)CC(=O)N1CCCCN1CCN(c2ncccn2)CC1` [Buspirone, 8-[4-[-4-(2-pyrimidinyl)-1-piperazinyl]butyl]-8-azaspiro[4.5]decane-7,9-dione], the “binding at the 5-HT1A site (in words)” value in the test with 5-HT1A receptor is on record as “demonstrate binding at the 5-HT1A site”.
In the case of `O=C(CCN1CCN(c2cccc(Cl)c2)CC1)N1CC2CC3CC(C2)CC1C3` [Example 1, 1-(4-Azatricyclo[4.3.1.1(3,8)]undec-4-yl)-3-[4-(3-chlorophenyl)-1-piperazinyl]-1-propanone], the inhibition at 0.1 µM in test [1] (setting [3]) was 78%. Moreover, in test [1] (3H-8-OH DPAT), the Ki is 30 nM. Also, the inhibition at 1 µM at D2 receptor (setting [4]) worked out at 42%.
As for `Clc1cccc(N2CCN(CCCN3CC4CC5CC(C4)CC3C5)CC2)c1` [Example 2, 4-[3-[4-(3-Chlorophenyl)-1-piperazinyl]propyl]-4-azatricyclo[4.3.1.1(3,8)]undecane Dihydrochloride One Third Hydrate], the inhibition at 0.1 µM in test [1] (setting [3]) came to 47%.
With `COc1ccccc1N1CCN(CCC(=O)N2CC3CC4CC(C3)CC2C4)CC1` [Example 3, 1-(4-Azatricyclo[4.3.1.1(3,8)]undec-4-yl)-3-[4-(2-methoxyphenyl)-1-piperazinyl]-1-propanone Dihydrochloride Hydrate], the inhibition at 0.1 µM in test [1] turned out to be 92%. The inhibition at 1 µM on D2 receptor turned out to be 71%.
Regarding `COc1ccccc1N1CCN(CCCN2CC3CC4CC(C3)CC2C4)CC1` [Example 4, 4-[3-[4-(2-Methoxyphenyl)-1-piperazinyl]propyl]-4-azatricyclo[4.3.1.1(3,8)]undecane Trihydrochloride One Quarter Hydrate], the inhibition at 0.1 µM in test [1] (setting [3]) amounted to 72%. In addition, the Ki in test [1] (3H-8-OH DPAT) is 33 nM. On D2 receptor (setting [4]), the inhibition at 1 µM turned out to be 14%.
For the compound `O=C(CCN1CCN(c2ncccn2)CC1)N1CC2CC3CC(C2)CC1C3` [Example 5, 1-(4-Azatricyclo[4.3.1.1(3,8)]undec-4-yl)-3-[4-(2-pyrimidinyl)-1-piperazinyl]-1-propanone], the inhibition at 0.1 µM in test [1] (setting [3]) amounted to 46%.
As to `O=C1c2ccccc2S(=O)(=O)N1CCCCN1CCN(c2ncccn2)CC1` [TVX Q 7821, 2-[4-[4-(2-pyrimidinyl)-1-piperazinyl]buyl]-1,2-benzisothiazol-3-(2H)one-1,1-dioxide hydrochloride], in the test on 5-HT1A receptor, the “binding at the 5-HT1A site (in words)” value was “demonstrate binding at the 5-HT1A site”. Further, the “antidepressant activity (in words)” value in test [2] is listed as “found to possess antidepressant activity”.
Regarding `CCCC(C)C1(CC)C(=O)NC(=O)NC1=O` (centres unmarked) [pentobarbital], the “binding at the 5-HT1A site (in words)” value in the test with 5-HT1A receptor was “do not act via the 5-HT1A receptor”.
